Results: article PMC6413339 (EBioMedicine, 2019)
Entries after “also recorded” stand apart in the source; their conditions may differ.

Experiments:
FLT3-ITD = FLT3-ITD (Homo sapiens, UniProt P36888, ITD); assay: Cell-free kinase assay, dose-response (Reaction Biology, ADP-Glo); assay type: biochemical
Procedure: (§1) Cell-free kinase activity assays were performed at Reaction Biology Corporation. Briefly, kinases were incubated with substrates, 100 μM ATP and a 3-fold serial dilution of compounds starting at 1 μM. DMSO was used as control. […] Experiments were performed in duplicates. The concentrations of kinases and substrates used in the assays are indicated on Table S1. Kinase activity was quantified using the ADP-Glo™ Kinase Assay System (Promega, Madison, WI) following the manufacturer's recommendations.

MV4–11-luc cells = assay: In vivo efficacy, orthotopic human AML model; details: for Photon intensity on whole body (mean±SEM): 25 mg/kg IP, 3×/week
Procedure: The in vivo efficacy of compounds was assessed in an orthotopic human AML model in NSG (NOD scid gamma, NOD-scid IL2Rg^null) mice that were bred at University of Maryland Baltimore (mating pairs acquired from Jackson Laboratories; Maine). […]. Three days later, engraftment was assessed by imaging on a Xenogen IVIS-2 Imaging System (Alameda) after an intraperitoneal (IP) injection of 150 mg/kg luciferin. Mice were sorted into four or five groups (n = 5) so that mean intensity (i.e., disease burden) was equal. Dosing started on day of sorting. Compounds were dissolved in 85% PBS (pH 7.4) buffer containing 10% DMSO and 5% Cremophore. The vehicle (buffer without compounds) was used as control. Mice were injected 3 to 5 days per week via IP injection. Mice were weighed on day of dosing and imaged once per week. […]. All mice were housed in a 12-h light/dark cycle with access to food and water ad libitum. Studies were performed with Institutional Animal Care and Use Committee (UMB and Purdue University) approval.
[…]. Female mice were dosed daily for 5 days via intraperitoneal injection and then monitored for an additional week for weight loss, a sign of toxicity in mice. […] To evaluate the anti-leukemic efficacy in vivo, six-week-old female NSG or NRG mice were injected intravenously with FLT3-ITD expressing acute myeloid leukemia cells (MV4–11), expressing luciferase. […] Dosing (i.p) with the compounds was then started. The mice were dosed with 25 mg/kg of the compounds three times a week (MWF). […] […].

phospho-Akt = assay: Western blot, MV4–11 cells; assay type: cell-based, human; details: 2 nM or 10 nM, 6 h and 48 h
Procedure: (§2) MV4–11 cultures were treated with 2 nM and 10 nM of compounds for 6 h and 48 h. Total protein extraction, gel separation, transfer and imaging of blots were performed as previously described. The following primary antibodies from Cell Signaling Technologies (MA, USA) were used: Phospho-p70S6K (cat. no. 9205, RRID: AB_330944), p70S6K (cat. no. 9202, RRID: AB_331676), Phospho-p38 (cat. no. 9211, RRID: AB_331641), p38 (cat. no. 9212, RRID: AB_330713), c-Myc (cat. no. 9402, RRID: AB_2151827), Phospho-FLT3 (cat. no. 3461, RRID: AB_331060), FLT3 (cat. no. 3462, RRID: AB_10693420), Phospho-STAT5 (cat. no. 9359, RRID: AB_823649), STAT5 (cat. no. 9363, RRID: AB_2196923), Phospho-ERK (cat. no. 9101, RRID: AB_331646), ERK (cat. no. 4695, RRID: AB_390779), Phospho-AKT (cat. no. 9271), AKT (cat. no. 9272, RRID: AB_329825), Phospho-Src (cat. no. 2101, RRID: AB_331697), Src (cat. no. 2110, RRID: AB_2106058), Phospho-STAT3 (cat. no. 9145, RRID: AB_2491009), STAT3 (cat. no. 12640, RRID: AB_2629499). Mouse anti-β-Actin antibody was purchased from Sigma (MO, USA). A horseradish peroxidase-conjugated anti-rabbit or anti-mouse antibody (Cell Signaling Technologies) was used as secondary antibody. Scanned images were analyzed using image J software.

phospho-Src = assay: Western blot, MV4–11 cells; assay type: cell-based, human; details: 2 nM or 10 nM, 6 h and 48 h
Procedure: as §2

phospho-STAT3 = assay: Western blot, MV4–11 cells; assay type: cell-based, human; details: 2 nM or 10 nM, 6 h and 48 h
Procedure: as §2

phospho-ERK = assay: Western blot, MV4–11 cells; assay type: cell-based, human; details: 2 nM or 10 nM, 6 h and 48 h
Procedure: as §2

phospho-p70S6K = assay: Western blot, MV4–11 cells; assay type: cell-based, human; details: 2 nM or 10 nM, 6 h and 48 h
Procedure: as §2

c-Myc = assay: Western blot, MV4–11 cells; assay type: cell-based, human; details: 2 nM or 10 nM, 6 h and 48 h
Procedure: as §2

phospho-FLT3 = assay: Western blot, MV4–11 cells; assay type: cell-based, human; details: 2 nM or 10 nM, 6 h and 48 h
Procedure: as §2

phospho-p38 = assay: Western blot, MV4–11 cells; assay type: cell-based, human; details: 2 nM or 10 nM, 6 h and 48 h
Procedure: as §2

phospho-STAT5 = assay: Western blot, MV4–11 cells; assay type: cell-based, human; details: 2 nM or 10 nM, 6 h and 48 h
Procedure: as §2

MEK1 = molecular target: T1, MEK1 (Homo sapiens, UniProt Q02750); assay: Cell-free kinase assay, dose-response; assay type: biochemical; details: up to 1 μM; ATP 100 μM
T1 construct: purchased Invitrogen PV3303
T1 sequence (Q02750 whole entry): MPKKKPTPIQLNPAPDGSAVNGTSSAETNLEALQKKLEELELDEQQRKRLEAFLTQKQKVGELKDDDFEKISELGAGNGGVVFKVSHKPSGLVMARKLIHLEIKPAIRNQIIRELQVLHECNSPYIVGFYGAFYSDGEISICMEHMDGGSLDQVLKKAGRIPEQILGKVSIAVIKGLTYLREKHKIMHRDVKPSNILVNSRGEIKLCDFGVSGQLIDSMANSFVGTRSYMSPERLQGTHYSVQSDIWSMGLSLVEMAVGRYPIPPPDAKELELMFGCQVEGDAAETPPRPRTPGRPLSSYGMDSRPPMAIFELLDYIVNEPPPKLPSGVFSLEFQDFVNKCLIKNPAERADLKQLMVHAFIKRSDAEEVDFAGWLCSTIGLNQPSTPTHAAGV
Procedure: as §1

BRAF = molecular target: T2, BRAF (Homo sapiens, UniProt P15056); assay: Cell-free kinase assay, dose-response; assay type: biochemical; details: ATP 100 μM; read-out: IC50 BRAF (B-Raf)
T2 construct: purchased BPS 40005
T2 sequence (P15056 whole entry): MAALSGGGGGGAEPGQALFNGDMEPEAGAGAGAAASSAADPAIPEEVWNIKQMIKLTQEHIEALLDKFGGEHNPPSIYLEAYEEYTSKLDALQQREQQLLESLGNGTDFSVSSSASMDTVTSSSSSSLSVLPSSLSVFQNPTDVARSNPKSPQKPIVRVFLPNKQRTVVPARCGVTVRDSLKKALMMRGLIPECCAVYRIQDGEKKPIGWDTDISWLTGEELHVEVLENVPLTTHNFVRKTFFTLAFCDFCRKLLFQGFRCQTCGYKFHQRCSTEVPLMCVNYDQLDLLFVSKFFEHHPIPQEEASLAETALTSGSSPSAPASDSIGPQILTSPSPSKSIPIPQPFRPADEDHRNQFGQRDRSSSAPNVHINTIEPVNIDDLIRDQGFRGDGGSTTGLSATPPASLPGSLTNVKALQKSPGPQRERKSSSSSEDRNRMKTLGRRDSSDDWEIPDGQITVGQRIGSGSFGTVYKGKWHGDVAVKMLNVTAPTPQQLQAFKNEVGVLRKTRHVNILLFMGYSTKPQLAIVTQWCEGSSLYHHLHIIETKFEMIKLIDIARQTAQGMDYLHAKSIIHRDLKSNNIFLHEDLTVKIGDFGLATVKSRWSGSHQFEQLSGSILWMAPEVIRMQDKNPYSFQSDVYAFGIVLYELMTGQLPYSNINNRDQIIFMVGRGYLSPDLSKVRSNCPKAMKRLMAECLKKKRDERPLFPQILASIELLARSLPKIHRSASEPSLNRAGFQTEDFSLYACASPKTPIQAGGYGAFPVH
Procedure: as §1

RSK1 = molecular target: T3, RSK1 (Homo sapiens, UniProt Q15418); assay: Cell-free kinase assay, dose-response; assay type: biochemical; details: ATP 100 μM
T3 construct: purchased Invitrogen PR6812A
T3 sequence (Q15418 whole entry): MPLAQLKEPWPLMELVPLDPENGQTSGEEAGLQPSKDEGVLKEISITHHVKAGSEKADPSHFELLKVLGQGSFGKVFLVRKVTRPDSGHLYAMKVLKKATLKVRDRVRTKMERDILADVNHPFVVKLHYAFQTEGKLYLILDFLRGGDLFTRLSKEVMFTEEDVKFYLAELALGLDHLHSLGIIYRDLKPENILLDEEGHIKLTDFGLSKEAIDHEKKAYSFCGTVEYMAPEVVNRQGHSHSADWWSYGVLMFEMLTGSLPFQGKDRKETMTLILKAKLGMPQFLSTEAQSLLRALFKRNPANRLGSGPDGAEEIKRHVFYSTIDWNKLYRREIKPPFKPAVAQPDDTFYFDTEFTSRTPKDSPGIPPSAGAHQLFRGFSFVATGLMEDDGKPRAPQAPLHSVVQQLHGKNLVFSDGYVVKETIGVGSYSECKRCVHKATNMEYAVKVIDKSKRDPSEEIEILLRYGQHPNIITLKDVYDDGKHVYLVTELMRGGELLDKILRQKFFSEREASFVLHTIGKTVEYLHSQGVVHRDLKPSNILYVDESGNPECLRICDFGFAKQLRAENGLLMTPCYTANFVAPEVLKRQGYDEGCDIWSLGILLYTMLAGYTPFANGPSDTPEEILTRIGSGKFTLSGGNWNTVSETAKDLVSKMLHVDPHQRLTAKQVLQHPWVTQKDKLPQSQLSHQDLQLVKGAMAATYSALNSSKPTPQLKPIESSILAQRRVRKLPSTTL
Procedure: as §1

RAF-1 = molecular target: T4, RAF-1 (Homo sapiens, UniProt P04049, Y340D/Y341D); assay: Cell-free kinase assay, dose-response; assay type: biochemical; details: ATP 100 μM; read-out: IC50 RAF-1 (c-Raf)
T4 construct: purchased Invitrogen PV3805
T4 sequence (P04049 306-648 Y340D/Y341D limits assumed): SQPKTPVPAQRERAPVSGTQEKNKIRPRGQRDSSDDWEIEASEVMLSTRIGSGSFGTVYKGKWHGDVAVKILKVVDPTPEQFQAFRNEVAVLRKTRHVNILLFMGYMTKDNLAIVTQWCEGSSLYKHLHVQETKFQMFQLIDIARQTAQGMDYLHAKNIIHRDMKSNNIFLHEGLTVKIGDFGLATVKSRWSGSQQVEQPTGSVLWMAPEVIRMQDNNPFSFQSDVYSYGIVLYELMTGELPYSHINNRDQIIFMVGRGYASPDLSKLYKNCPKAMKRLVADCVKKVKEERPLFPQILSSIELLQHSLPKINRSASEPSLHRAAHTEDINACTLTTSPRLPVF
Procedure: as §1

p38 = molecular target: T5, p38 (Homo sapiens, UniProt Q16539); assay: Cell-free kinase assay, dose-response; assay type: biochemical; details: ATP 100 μM
T5 construct: purchased Invitrogen PV3304
T5 sequence (Q16539 whole entry): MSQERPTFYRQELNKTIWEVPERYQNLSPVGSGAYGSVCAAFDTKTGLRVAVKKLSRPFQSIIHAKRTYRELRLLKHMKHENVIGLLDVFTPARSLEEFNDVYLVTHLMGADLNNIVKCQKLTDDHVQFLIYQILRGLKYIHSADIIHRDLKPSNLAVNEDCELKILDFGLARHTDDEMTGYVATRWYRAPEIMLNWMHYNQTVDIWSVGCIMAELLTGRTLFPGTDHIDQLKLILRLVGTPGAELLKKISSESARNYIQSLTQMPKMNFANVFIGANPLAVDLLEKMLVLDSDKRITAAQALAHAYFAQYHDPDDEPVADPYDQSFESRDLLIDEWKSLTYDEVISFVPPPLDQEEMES
Procedure: as §1

ARAF = molecular target: T6, ARAF (Homo sapiens, UniProt P10398); assay: Cell-free kinase assay, dose-response; assay type: biochemical; details: ATP 100 μM; read-out: IC50 ARAF (A-Raf)
T6 construct: purchased BPS 40010
T6 sequence (P10398 whole entry): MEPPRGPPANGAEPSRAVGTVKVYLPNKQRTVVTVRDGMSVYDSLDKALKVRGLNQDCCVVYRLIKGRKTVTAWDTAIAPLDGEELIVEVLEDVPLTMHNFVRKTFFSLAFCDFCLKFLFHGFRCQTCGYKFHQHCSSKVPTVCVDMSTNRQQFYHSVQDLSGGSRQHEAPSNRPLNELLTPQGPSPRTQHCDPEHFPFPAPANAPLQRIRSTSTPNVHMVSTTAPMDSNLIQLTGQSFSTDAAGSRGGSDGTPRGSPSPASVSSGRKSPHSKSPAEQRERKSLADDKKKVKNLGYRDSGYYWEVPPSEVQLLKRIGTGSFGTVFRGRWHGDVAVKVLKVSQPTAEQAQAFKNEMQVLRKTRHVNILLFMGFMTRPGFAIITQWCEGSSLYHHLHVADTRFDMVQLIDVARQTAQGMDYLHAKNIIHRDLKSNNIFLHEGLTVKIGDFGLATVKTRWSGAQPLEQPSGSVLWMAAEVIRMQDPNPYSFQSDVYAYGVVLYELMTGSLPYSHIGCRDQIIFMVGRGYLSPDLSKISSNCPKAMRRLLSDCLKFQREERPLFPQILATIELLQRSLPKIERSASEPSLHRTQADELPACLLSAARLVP
Procedure: as §1

p70S6K = molecular target: T7, p70S6K (Homo sapiens, UniProt P23443); assay: Cell-free kinase assay, dose-response; assay type: biochemical; details: ATP 100 μM
T7 construct: purchased Invitrogen PV3815
T7 sequence (P23443 whole entry): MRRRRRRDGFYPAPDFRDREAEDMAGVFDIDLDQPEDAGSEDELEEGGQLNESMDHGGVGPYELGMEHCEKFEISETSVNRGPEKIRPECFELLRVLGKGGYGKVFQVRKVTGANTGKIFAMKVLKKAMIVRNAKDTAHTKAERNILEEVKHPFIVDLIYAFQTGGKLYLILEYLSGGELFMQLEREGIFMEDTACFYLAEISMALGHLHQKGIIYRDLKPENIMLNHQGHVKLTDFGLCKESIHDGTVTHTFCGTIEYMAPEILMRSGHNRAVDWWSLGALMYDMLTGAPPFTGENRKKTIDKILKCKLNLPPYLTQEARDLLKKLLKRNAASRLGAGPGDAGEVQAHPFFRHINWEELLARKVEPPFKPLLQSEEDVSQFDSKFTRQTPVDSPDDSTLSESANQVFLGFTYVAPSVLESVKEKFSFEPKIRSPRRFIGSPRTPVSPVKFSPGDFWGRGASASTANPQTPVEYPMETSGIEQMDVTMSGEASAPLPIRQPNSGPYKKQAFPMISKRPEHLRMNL
Procedure: as §1

FLT3-ITD, sequence (P36888 564-993, change not shown): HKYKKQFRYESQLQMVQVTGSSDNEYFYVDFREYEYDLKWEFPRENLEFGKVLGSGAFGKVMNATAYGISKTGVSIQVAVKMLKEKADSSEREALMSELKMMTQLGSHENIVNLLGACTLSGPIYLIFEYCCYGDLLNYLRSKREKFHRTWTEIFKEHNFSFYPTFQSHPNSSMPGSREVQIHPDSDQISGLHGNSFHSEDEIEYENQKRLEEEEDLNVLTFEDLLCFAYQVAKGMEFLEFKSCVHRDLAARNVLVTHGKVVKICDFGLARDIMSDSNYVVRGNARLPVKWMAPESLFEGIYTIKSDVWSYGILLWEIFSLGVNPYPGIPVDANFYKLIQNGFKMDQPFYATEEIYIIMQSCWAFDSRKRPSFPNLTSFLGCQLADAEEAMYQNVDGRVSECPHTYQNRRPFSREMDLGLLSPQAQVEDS

SMILES: Cc1ncc(C(=O)Nc2ccc(CN3CCN(C)CC3)c(C(F)(F)F)c2)cc1C#Cc1c(N)ncc2ccc(F)cc12 [Compound 7]
- IC50 (FLT3-ITD): 12.5 nM
- adverse events / signs of toxicity on repeated dosing (MV4–11-luc cells; 25 mg/kg IP 3×/week for several weeks, listed as HSN431): without any adverse events; also recorded: without any obvious signs of toxicity
- reduction in leukemia burden (MV4–11-luc cells; 25 mg/kg i.p. three times a week (MWF), NSG or NRG mice): > 99%
- Photon intensity on whole body (mean±SEM) (MV4–11-luc cells; Day 1, n = 5): 130000 ± 21400
- Photon intensity on whole body (mean±SEM) (MV4–11-luc cells; Day 27, n = 5): 4570 ± 615
- Photon intensity on whole body (mean±SEM) (MV4–11-luc cells; Day 41, n = 5): 19600 ± 3730
- Photon intensity on whole body (mean±SEM) (MV4–11-luc cells; Day 73, n = 5): 4390 ± 140
- survival (MV4–11-luc cells; after day 73, 25 mg/kg IP 3×/week, n = 5): all five mice were still alive
- mice still alive (MV4–11-luc cells; day 40, 25 mg/kg three times per week, all control mice had died): 100%
- phosphorylation of Akt (phospho-Akt): decreased phosphorylation
- phosphorylation of Src (phospho-Src): inhibition
- STAT3 phosphorylation (phospho-STAT3): inhibited
- phosphorylation of ERK (phospho-ERK): inhibition
- phosphorylation of p70S6K (phospho-p70S6K): decreased phosphorylation
- c-Myc level (c-Myc): modest inhibition
- phosphorylation of FLT3 (phospho-FLT3): inhibition
- phosphorylation of p38 (phospho-p38): inhibition
- STAT5 phosphorylation (phospho-STAT5): inhibited
- inhibition of MEK1 kinase activity (MEK1): but not the downstream effectors MEK1, ERK1 and RSK1
- IC50 (BRAF): 26.3 nM
- IC50 (RSK1): 1480 nM
- IC50 (RAF-1): 12.8 nM
- IC50 (p38): 46.2 nM
- IC50 (ARAF): 27.6 nM
- IC50 (p70S6K): 44.7 nM
